# Laboratory results published in ChEMBL document CHEMBL1154536, “Optimization of 4,6-bis-anilino-1H-pyrrolo[2,3-d]pyrimidine IGF-1R tyrosine kinase inhibitors towards JNK selectivity” (Bioorg Med Chem Lett, 2009).
# What was measured:
# [1] = biological target: T1, Insulin-like growth factor 1 receptor (Homo sapiens, UniProt P08069); assay: Inhibition of IGF-1R
# [2] = biological target: Mitogen-activated protein kinase 8 (Homo sapiens, UniProt P45983); assay: Inhibition of His-tagged JNK1
# [3] = biological target: T1, Insulin-like growth factor 1 receptor; assay: Inhibition of phospho IGFR1 by cellular assay
# [4] = Clearance in rat at 2.5 mg/kg, iv and 10 mg/kg, po; type: ADME, organism-based; details: in vivo
# Rattus norvegicus [5] = assay: Dose normalized AUC (0 to 8 hrs) in rat at 10 mg/kg, po; type: ADME, organism-based; design: time < 8 hr, dose 10 mg/kg, route oral; details: in vivo
# [6] = Cmax in rat at 10 mg/kg, po; type: ADME, organism-based; design: dose 10 mg/kg, route oral; details: in vivo
# [7] = Oral bioavailability in rat at 10 mg/kg, po; type: ADME, organism-based; details: in vivo
# [8] = Clearance in rat at 2.5 mg/kg, iv and […] mg/kg, po; type: ADME, organism-based; details: in vivo
# Rattus norvegicus [9] = assay: Dose normalized AUC (0 to 8 hrs) in rat at 13 mg/kg, po; type: ADME, organism-based; design: time < 8 hr, dose 13 mg/kg, route oral; details: in vivo
# [10] = Cmax in rat at 13 mg/kg, po; type: ADME, organism-based; design: dose 13 mg/kg, route oral; details: in vivo
# [11] = Oral bioavailability in rat at 13 mg/kg, po; type: ADME, organism-based; details: in vivo
# [12] = biological target: Mitogen-activated protein kinase 10 (Homo sapiens, UniProt P53779); assay: Inhibition of human His-tagged JNK3
# Rattus norvegicus [13] = assay: Dose normalized AUC (0 to 8 hrs) in rat at 9 mg/kg, po; type: ADME, organism-based; design: time < 8 hr, dose 9 mg/kg, route oral; details: in vivo
# [14] = Cmax in rat at 9 mg/kg, po; type: ADME, organism-based; design: dose 9 mg/kg, route oral; details: in vivo
# [15] = biological target: ALK tyrosine kinase receptor (Homo sapiens, UniProt Q9UM73); assay: Inhibition of ALK
# Insulin receptor = Insulin receptor (Homo sapiens, UniProt P06213); assay: Inhibition of IR
# [16] = Clearance in rat at 2.6 mg/kg, iv and […] mg/kg, po; type: ADME, organism-based; details: in vivo
# [17] = biological target: T1, Insulin-like growth factor 1 receptor; assay: Inhibition of phospho IGFR1 by cellular assay in presence of 2%HSA
# T1 sequence (P08069 31-736 limits assumed): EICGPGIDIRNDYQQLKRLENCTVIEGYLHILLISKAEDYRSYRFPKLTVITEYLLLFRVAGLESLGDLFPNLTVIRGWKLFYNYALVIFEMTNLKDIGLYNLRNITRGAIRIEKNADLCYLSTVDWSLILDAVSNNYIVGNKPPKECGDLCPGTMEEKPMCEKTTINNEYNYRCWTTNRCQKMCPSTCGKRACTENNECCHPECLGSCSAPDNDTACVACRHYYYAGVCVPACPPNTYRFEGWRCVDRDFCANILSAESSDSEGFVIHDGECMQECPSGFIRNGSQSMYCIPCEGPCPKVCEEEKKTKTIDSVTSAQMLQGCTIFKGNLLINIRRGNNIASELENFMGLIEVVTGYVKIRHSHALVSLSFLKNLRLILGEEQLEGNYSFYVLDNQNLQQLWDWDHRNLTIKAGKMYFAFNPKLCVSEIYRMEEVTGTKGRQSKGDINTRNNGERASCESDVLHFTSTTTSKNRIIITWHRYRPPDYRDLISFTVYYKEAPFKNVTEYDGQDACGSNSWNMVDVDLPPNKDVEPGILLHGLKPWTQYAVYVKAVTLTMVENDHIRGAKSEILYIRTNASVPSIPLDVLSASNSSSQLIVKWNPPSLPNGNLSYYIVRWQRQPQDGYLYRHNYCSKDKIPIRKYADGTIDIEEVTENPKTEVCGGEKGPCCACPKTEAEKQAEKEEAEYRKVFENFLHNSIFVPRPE
# T1 sequence (P08069 741-1367 limits assumed): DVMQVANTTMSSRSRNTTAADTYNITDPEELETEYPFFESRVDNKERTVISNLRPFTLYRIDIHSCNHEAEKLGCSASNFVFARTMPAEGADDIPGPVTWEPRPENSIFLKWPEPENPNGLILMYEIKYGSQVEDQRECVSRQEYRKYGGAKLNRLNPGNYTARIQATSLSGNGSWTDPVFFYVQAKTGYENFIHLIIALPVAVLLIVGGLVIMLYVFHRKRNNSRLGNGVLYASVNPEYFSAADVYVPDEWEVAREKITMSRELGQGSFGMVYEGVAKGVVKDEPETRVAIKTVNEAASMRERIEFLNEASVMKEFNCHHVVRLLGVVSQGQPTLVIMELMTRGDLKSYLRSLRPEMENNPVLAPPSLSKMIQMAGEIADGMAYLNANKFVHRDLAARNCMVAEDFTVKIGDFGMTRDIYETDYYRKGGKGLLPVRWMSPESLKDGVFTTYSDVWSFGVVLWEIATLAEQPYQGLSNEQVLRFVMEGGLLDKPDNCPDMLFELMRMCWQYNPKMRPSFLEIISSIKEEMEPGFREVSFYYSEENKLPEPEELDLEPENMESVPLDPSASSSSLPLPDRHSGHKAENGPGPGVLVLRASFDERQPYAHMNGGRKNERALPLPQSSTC
# Chain of Mitogen-activated protein kinase 8 (P45983 whole entry): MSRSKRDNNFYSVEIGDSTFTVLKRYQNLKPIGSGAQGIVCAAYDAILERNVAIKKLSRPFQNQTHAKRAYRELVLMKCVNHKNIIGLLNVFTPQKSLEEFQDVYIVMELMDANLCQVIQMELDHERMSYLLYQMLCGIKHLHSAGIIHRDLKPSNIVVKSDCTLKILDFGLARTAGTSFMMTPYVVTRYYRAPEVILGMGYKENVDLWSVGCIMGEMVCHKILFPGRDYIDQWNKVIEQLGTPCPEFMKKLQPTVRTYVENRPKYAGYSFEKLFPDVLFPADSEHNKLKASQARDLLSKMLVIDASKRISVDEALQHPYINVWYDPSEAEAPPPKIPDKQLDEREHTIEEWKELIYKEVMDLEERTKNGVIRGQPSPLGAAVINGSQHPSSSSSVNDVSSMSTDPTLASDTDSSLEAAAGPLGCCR
# Chain of Mitogen-activated protein kinase 10 (P53779 whole entry): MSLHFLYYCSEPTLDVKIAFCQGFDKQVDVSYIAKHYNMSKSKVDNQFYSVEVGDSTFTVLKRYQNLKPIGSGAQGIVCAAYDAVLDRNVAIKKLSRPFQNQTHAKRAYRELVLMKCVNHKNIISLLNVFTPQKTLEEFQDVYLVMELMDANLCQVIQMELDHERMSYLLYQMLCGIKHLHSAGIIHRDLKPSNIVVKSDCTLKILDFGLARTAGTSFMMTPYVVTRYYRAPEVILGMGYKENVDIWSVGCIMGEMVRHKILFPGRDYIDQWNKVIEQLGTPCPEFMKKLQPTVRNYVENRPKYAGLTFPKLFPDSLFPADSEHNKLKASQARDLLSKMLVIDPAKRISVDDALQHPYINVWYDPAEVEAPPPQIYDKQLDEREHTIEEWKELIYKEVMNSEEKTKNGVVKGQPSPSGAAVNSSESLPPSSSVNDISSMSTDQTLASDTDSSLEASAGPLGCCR
# Chain of Insulin receptor (P06213 28-758 limits assumed): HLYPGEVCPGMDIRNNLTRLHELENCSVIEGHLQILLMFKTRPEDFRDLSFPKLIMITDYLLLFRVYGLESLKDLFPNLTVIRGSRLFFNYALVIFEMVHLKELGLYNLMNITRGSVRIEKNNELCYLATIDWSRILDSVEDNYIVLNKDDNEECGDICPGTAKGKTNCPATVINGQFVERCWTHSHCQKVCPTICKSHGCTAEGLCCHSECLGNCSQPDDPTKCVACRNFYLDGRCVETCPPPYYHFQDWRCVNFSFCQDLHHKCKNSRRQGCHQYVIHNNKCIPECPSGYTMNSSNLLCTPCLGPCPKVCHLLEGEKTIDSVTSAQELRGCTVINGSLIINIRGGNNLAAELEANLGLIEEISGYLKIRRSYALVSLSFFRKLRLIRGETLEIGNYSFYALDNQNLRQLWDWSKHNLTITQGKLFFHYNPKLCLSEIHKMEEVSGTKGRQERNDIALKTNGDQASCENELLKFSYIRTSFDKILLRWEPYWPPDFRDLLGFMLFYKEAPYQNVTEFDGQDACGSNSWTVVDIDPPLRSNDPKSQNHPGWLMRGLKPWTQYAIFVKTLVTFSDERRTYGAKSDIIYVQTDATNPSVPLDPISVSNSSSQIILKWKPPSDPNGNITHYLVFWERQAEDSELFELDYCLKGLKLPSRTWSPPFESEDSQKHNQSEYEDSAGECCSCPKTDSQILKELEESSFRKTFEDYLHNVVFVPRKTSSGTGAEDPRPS
# Chain of Insulin receptor (P06213 763-1382 limits assumed): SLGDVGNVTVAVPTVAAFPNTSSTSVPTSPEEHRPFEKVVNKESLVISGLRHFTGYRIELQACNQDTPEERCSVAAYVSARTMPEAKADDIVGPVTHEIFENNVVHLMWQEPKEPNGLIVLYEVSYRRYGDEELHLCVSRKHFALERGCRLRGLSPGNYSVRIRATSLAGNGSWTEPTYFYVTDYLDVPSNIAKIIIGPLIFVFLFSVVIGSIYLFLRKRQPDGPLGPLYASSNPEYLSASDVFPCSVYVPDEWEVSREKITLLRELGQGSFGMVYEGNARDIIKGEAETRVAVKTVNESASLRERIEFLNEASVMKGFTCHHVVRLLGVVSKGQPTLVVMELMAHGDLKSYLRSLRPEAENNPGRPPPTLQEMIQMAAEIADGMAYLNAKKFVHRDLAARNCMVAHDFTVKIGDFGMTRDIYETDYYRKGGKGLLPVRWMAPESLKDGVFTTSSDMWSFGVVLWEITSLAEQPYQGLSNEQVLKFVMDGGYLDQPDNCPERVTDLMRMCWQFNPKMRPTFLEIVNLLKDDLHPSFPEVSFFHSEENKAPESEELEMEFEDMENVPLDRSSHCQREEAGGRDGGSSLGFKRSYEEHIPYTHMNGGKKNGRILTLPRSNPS
SMILES,IC50 [1],IC50 [2],IC50 [3],also measured
CNCC(=O)N1CCc2cc(OC)c(Nc3nc(Nc4cccc(F)c4C(N)=O)c4cc[nH]c4n3)cc21,2 nM,2000 nM,79 nM,–
CNC(=O)c1c(F)cccc1Nc1nc(Nc2cc3c(cc2OC)CCN3C(=O)CN(C)C)nc2[nH]ccc12,–,–,–,clearance [4]: 73 mL/min/kg; AUC (Rattus norvegicus [5]): 210 ng·h/mL/mg/kg; Cmax [6]: 365 ng/mL; bioavailability [7]: 98%
COc1ccc(CCCN(C)C)cc1Nc1nc(Nc2cccc(F)c2C(N)=O)c2cc[nH]c2n1,13 nM,5010 nM,212 nM,–
COc1ccc(N(C)C(=O)CN(C)C)cc1Nc1nc(Nc2cccc(F)c2C(N)=O)c2cc[nH]c2n1,50 nM,10000 nM,377 nM,–
COc1cc(C)c(N2CCN(C(C)C)CC2)cc1Nc1nc(Nc2cccc(F)c2C(N)=O)c2cc[nH]c2n1,–,3890 nM,–,IC50 [12]: 6310 nM
COc1ccc(NC(=O)CN(C)C)cc1Nc1nc(Nc2cccc(F)c2C(N)=O)c2cc[nH]c2n1,1 nM,3160 nM,28 nM,–
COc1cc2c(cc1Nc1nc(Nc3cccc(F)c3C(N)=O)c3cc[nH]c3n1)N(C(=O)CCN1CCN(C(C)C)CC1)CC2,4 nM,1590 nM,651 nM,–
COc1cc(C)c(N(C)C(=O)CN(C)C)cc1Nc1nc(Nc2cccc(F)c2C(N)=O)c2cc[nH]c2n1 [GSK-2219385A],63 nM,10000 nM,1730 nM,–
CCCN1CCC(Oc2ccc(OC)c(Nc3nc(Nc4cccc(F)c4C(N)=O)c4cc[nH]c4n3)c2)CC1,6 nM,1260 nM,929 nM,–
COc1cc2c(cc1Nc1nc(Nc3cccc(F)c3C(N)=O)c3cc[nH]c3n1)N(C(=O)CN1CCCC1)CC2,1 nM,1260 nM,24 nM,–
COc1ccc(N2CCN(C(C)C)CC2)cc1Nc1nc(Nc2cccc(F)c2C(N)=O)c2cc[nH]c2n1,–,3160 nM,201 nM,IC50 [12]: 5010 nM; AUC (Rattus norvegicus [13]): 133 ng·h/mL/mg/kg; Cmax [14]: 233 ng/mL
COc1cc(Cl)c(OCCCN(C)C)cc1Nc1nc(Nc2cccc(F)c2C(N)=O)c2cc[nH]c2n1,13 nM,1260 nM,895 nM,–
COc1cc2c(cc1Nc1nc(Nc3cccc(F)c3C(N)=O)c3cc[nH]c3n1)N(C(=O)CN1CCCCC1)CCC2,1 nM,2510 nM,11 nM,–
COc1cc2c(cc1Nc1nc(Nc3cccc(F)c3C(N)=O)c3cc[nH]c3n1)N(C(=O)CN(C)C)CCC2,1 nM,6310 nM,16 nM,–
COc1cc2c(cc1Nc1nc(Nc3cccc(F)c3C(N)=O)c3cc[nH]c3n1)N(C(=O)CN)CC2,4 nM,1000 nM,765 nM,–
COc1cc2c(cc1Nc1nc(Nc3cccc(F)c3C(N)=O)c3cc[nH]c3n1)N(C(=O)CN1CCC1)CC2,1 nM,2000 nM,128 nM,–
COc1cc2c(cc1Nc1nc(Nc3cccc(F)c3C(N)=O)c3cc[nH]c3n1)N(C(=O)CCN(C)C)CCC2,10 nM,7940 nM,209 nM,–
COc1cc2c(cc1Nc1nc(Nc3cccc(F)c3C(N)=O)c3cc[nH]c3n1)N(C(=O)CN(C)C)CC2,–,1590 nM,56 nM,clearance [16]: 48 mL/min/kg; AUC (Rattus norvegicus [9]): 190 ng·h/mL/mg/kg; Cmax [10]: 455 ng/mL; bioavailability [11]: 61%; IC50 [17]: 487 nM
CCCN1CCC(Oc2cc(Nc3nc(Nc4cccc(F)c4C(N)=O)c4cc[nH]c4n3)c(OC)cc2Cl)CC1 [GSK-1713088A],25 nM,3980 nM,5370 nM,–
COc1cc2c(cc1Nc1nc(Nc3cccc(F)c3C(N)=O)c3cc[nH]c3n1)N(C(=O)CN1CCN(C(C)C)CC1)CC2 [GSK-1751853A],32 nM,1590 nM,376 nM,–
COc1cc(C)c(NC(=O)CN(C)C)cc1Nc1nc(Nc2cccc(F)c2C(N)=O)c2cc[nH]c2n1 [GSK-2213727A],0.5 nM,2000 nM,38 nM,–
COc1cc2c(cc1Nc1nc(Nc3cccc(F)c3C(N)=O)c3cc[nH]c3n1)N(C(C)=O)CCC2,25 nM,7940 nM,1980 nM,–
CCN(C)CC(=O)N1CCc2cc(OC)c(Nc3nc(Nc4cccc(F)c4C(N)=O)c4cc[nH]c4n3)cc21,3 nM,3160 nM,19 nM,–

# Further lines, with some results ahead:
IC50 [1],IC50 [2],IC50 [3],SMILES,also measured
40 nM,100 nM,794 nM,COc1cc2c(cc1Nc1nc(Nc3cccc(F)c3C(N)=O)c3cc[nH]c3n1)N(CCN(C)C)CC2,–
8 nM,631 nM,81 nM,COc1ccc(OCCCN(C)C)cc1Nc1nc(Nc2cccc(F)c2C(N)=O)c2cc[nH]c2n1,clearance [8]: 112 mL/min/kg; AUC (Rattus norvegicus [9]): 85 ng·h/mL/mg/kg; Cmax [10]: 192 ng/mL; bioavailability [11]: 60%
32 nM,631 nM,7760 nM,COc1cc2c(cc1Nc1nc(Nc3cccc(F)c3C(N)=O)c3cc[nH]c3n1)N(C(=O)Cn1ccnc1)CC2,–
2 nM,1000 nM,85 nM,CCN(CC)CC(=O)N1CCc2cc(OC)c(Nc3nc(Nc4cccc(F)c4C(N)=O)c4cc[nH]c4n3)cc21,–
6 nM,251 nM,298 nM,COc1cc2c(cc1Nc1nc(Nc3cccc(F)c3C(N)=O)c3cc[nH]c3n1)N(C(=O)CCN1CCOCC1)CC2,–
6 nM,126 nM,278 nM,COc1cc2c(cc1Nc1nc(Nc3cccc(F)c3C(N)=O)c3cc[nH]c3n1)N(C(C)=O)CC2,–
13 nM,501 nM,840 nM,COc1cc(C)c(CCCN(C)C)cc1Nc1nc(Nc2cccc(F)c2C(N)=O)c2cc[nH]c2n1,–
–,13 nM,–,COc1cc(N2CCN(C(C)C)CC2)ccc1Nc1nc(Nc2cccc(F)c2C(N)=O)c2cc[nH]c2n1,IC50 [15]: 0.5 nM; IC50 (Insulin receptor): 1.6 nM; IC50 [12]: 100 nM
8 nM,794 nM,191 nM,COc1cc2c(cc1Nc1nc(Nc3cccc(F)c3C(N)=O)c3cc[nH]c3n1)N(C(=O)CCN(C)C)CC2,–
50 nM,794 nM,877 nM,COc1cc2c(cc1Nc1nc(Nc3cccc(F)c3C(N)=O)c3cc[nH]c3n1)N(C(=O)CN(C)OC)CC2,–
13 nM,126 nM,72 nM,COc1cc2c(cc1Nc1nc(Nc3cccc(F)c3C(N)=O)c3cc[nH]c3n1)N(C(=O)CN1CCOCC1)CC2,–
